{"source": "patent US6479461B1", "about": "“Use of alkylmonoglucosides as molecular vectors” (Ulice, priority 1997, dated 2002)", "key": {"[1]": {"test_system": "skin model: epidermis reconstituted from keratinocytes on a matrix of collagen", "test": "MTT dosage on skin model (cytotoxicity)", "description": "We have quantified and compared in vitro, the cytotoxicity of lactic acid and of lactate of α-butylglucoside on a skin model. This skin model is made up of a matrix of collagen on which rests an epidermis reconstituted from keratinocytes and presenting a similar architecture to that of the human epidermis. The transformation of tetrazolium salt (MTT) in blue crystals of Formozan is proportional to the activity of the dehydrogenase succinate, (a mitochondrial enzyme). As a consequence, the more the epidermis contains living cells, the larger the transformation by the dehydrogenase succinate of the MTT in blue Formozan crystals will be. The quantity of Formozan is measured in the spectrophotometer. The cellular viability, carried out to determine the toxicity of the product, is calculated according to the formula:\n% viability=OD produced/OD cellular control×100\nThe cellular control is carried out without issue. A reference tensioactive SDS (Sodium Dodecyl Sulphate) at 1.5 mg/ml is equally tested as a cytotoxic control.\nIf the cellular viability is between 70 and 50%, the products are considered as slightly cytotoxic.\nIf it is lower than 50%, the products are considered as cytotoxic."}, "[2]": {"test_system": "corneas from abattoir beef carcasses", "description": "The BCOP test (bovine corneal opacity and permeability) makes it possible to evaluate the ocular irritation indice in vitro on corneas from abattoir beef carcasses. It measures two parameter of ocular irritation: the opacity and cellular permeability.\nThe opacity is defined as the difference of light transmission between a treated cornea and a control cornea. The permeability is equal to the optical density (OD) measured in a spectrophotometer at 490 nm.\nThe irritation score in vitro is established by using the following formula:\nScore in vitro=opacity value+[…] the value of OD.\nThe objective values are combined and the scores of ocular irritation in vitro are compared to an irritation scale previously established. In general, the irritant potential is classed in three categories weak (0 to 25), moderate (25.1 to 55) and severe (55.1 and +)."}, "[3]": {"details": "SDS at 1-5 mg/ml, MTT, skin model"}}, "note": "Where two headings read alike, the source gives them in different places."}
{"smiles": "CCCCO[C@H]1O[C@H](COC(=O)C(C)O)[C@@H](O)[C@H](O)[C@H]1O", "note": "(stereo partly drawn) [Lactate of α-butylglucoside, Lactic Ester of α-Butylglucoside]", "values": [{"measurement": "% viability in comparison to the control", "setting": "[1]", "value": 74.5, "unit": "%"}, {"measurement": "Average (optical density at 540 nm)", "setting": "[1]", "value": 0.255}, {"measurement": "OD trial 1 (optical density at 540 nm)", "setting": "[1]", "value": 0.242}, {"measurement": "OD trial 2 (optical density at 540 nm)", "setting": "[1]", "value": 0.265}, {"measurement": "cytotoxicity class", "setting": "[1]", "value": "not cytotoxic"}, {"measurement": "irritancy compared with lactic acid", "setting": "[1]", "value": "less irritant than lactic acid"}]}
{"smiles": "CC(O)C(=O)O", "note": "(stereo not shown) [Lactic acid, lactic acid]", "values": [{"measurement": "% viability in comparison to the control", "setting": "[1]; 5 %", "value": 16, "unit": "%"}, {"measurement": "Average (optical density at 540 nm)", "setting": "[1]; 5 %", "value": 0.055}, {"measurement": "OD trial 1 (optical density at 540 nm)", "setting": "[1]; 5 %", "value": 0.044}, {"measurement": "OD trial 2 (optical density at 540 nm)", "setting": "[1]; 5 %", "value": 0.066}, {"measurement": "ocular irritation category", "setting": "[2]", "value": "moderately irritant"}]}
{"smiles": "CCCCCCCCCCCCOS(=O)(=O)[O-].[Na+]", "note": "[SDS, Sodium Dodecyl Sulphate]", "values": [{"measurement": "% viability in comparison to the control", "setting": "[1]; [3]", "value": 14.8, "unit": "%"}, {"measurement": "Average (optical density at 540 nm)", "setting": "[1]; [3]", "value": 0.051}, {"measurement": "OD trial 1 (optical density at 540 nm)", "setting": "[1]; [3]", "value": 0.046}, {"measurement": "OD trial 2 (optical density at 540 nm)", "setting": "[1]; [3]", "value": 0.056}]}
{"smiles": "CCCCO[C@H]1O[C@H](CO)[C@@H](O)[C@H](O)[C@H]1O", "note": "[α-butylglucoside, n-butyl-α-D-monoglucopyranose]", "values": [{"measurement": "ocular irritation category", "setting": "[2]", "value": "non-irritant"}, {"measurement": "miscibility with saturated and unsaturated acids", "setting": "in a melted medium", "value": "miscible in all proportions"}, {"measurement": "Solubility at 20° C.", "setting": "solvent: Acetonitrile", "value": "50 % (p/p)"}, {"measurement": "Solubility at 20° C.", "setting": "solvent: Dichloromethane", "value": "70 % (p/p)"}, {"measurement": "Solubility at 20° C.", "setting": "solvent: Dioxane", "value": "70 % (p/p)"}, {"measurement": "Solubility at 20° C.", "setting": "solvent: Ethanol (95/96%)", "value": "70 % (p/p)"}, {"measurement": "Solubility at 20° C.", "setting": "solvent: Glycerol", "value": "70 % (p/p)"}, {"measurement": "Solubility at 20° C.", "setting": "solvent: Polyethylene glycol 200", "value": "70 % (p/p)"}, {"measurement": "Solubility at 20° C.", "setting": "solvent: Propylene glycol", "value": "70 % (p/p)"}, {"measurement": "Solubility at 20° C.", "setting": "solvent: Water", "value": "60 % (p/p)"}]}
